pIC50: −log10 of the molar value. Like-named read-outs stand apart in the source and are kept apart here.
Assays:
[1] = biological target: T1, human sputum elastase (HSE) (Homo sapiens, UniProt P08246); assay: Protease inhibition assay (in vitro), human sputum elastase; assay type: biochemical; conditions: substrate methoxysuccinyl-(Ala)2-Pro-Val-p-nitroanilide, 30 min, room temperature, pH 7.5
T1 construct: HSE was obtained from Elastin Products Company Inc., Mo., U.S.A; purchased Elastin Products Company Inc; host or cells: human sputum (from the enzyme's name)
T1 sequence (P08246 30-267): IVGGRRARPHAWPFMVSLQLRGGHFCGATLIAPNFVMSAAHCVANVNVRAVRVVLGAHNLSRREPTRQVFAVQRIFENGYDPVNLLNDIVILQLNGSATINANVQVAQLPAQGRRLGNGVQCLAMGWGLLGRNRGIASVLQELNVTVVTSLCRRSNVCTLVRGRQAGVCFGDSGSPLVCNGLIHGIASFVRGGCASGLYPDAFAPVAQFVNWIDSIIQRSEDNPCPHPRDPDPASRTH
Method: (§1) A buffer used throughout the assay was 0.1M HEPES (4-(2-hydroxyethyl)-1-piperazineethanesulfonic acid) containing 0.5M NaCl, pH 7.5. Twenty-five microliters of 2 mM methoxysuccinyl-(Ala)2 -Pro-Val-p-nitroanilide (100 mM of dimethyl sulfoxide solution were diluted in the buffer) and 50 μl of sample (10 μl of sample in organic solvent was diluted 5-fold in the buffer) were mixed in wells of 96 well-microliter plate. An absorbance of the mixture in wavelength at 415 nm was measured by a microplate reader (Corona Electric Co., Ibaraki, Japan). After the measurement, 25 μl of 6 μg/ml human sputum elastase (HSE) was added and the mixture was allowed to stand for 30 minutes at room temperature. Then, the absorbance at 415 nm was measured. Percent inhibition by drug was determined by 100×(1-"r" inhibitor present/"r" inhibitor absent), where "r" is absorbance after 30 minutes incubation minus absorbance before enzyme addition. Effect of inhibitors against porcine pancreas elastase (Type IV, 5 μg/ml final) was assayed similarly using N-succinyl-(Ala)3 -p-nitroanilide. HSE was obtained from Elastin Products Company Inc., Mo., U.S.A. All other substrates and protease were purchased from Sigma Chemicals Co.

[2] = tested on: human sputum elastase-induced lung hemorrhage in hamsters; assay: Elastase-induced pulmonary damage (lung hemorrhage) in hamsters; assay type: in vivo, hamster; conditions: 5 min predose; for Hemorrhage (OD541 nm): BAL hemoglobin 3 h after elastase; for ED50 elastase-induced lung hemorrhage: intratracheal
Method: Hamsters under pentobarbital anesthesia were used. Saline or saline-containing human sputum elastase was instilled intratracheally via a small incision in the ventral neck region using 1-ml syringe with a 27-gauge needle. After 3 hours, animals were sacrificed by CO2 asphyxiation, each animal's trachea was reexposed. The lungs were then laveged using a 2.5-ml aliquot of saline and then withdrawing the saline, yielding a final volume of approximately 1.5 ml bronchoalveolar lavage (BAC) fluid from each animal.
The cells of BAL fluid were collected by centrifugation and were then diluted with distilled water to disrupt, and the hemoglobin contents determined spectrophotometrically at 541 nm.
Test drugs were dissolved in saline or methyl cellulose, and instilled intratracheally in the same manner as used to instill elastase, at 5 minutes before instillation of elastase.

[3] = biological target: T2, porcine pancreas elastase (Type IV) (Sus scrofa, UniProt P00772); assay: Protease inhibition assay (in vitro), porcine pancreas elastase; assay type: biochemical; conditions: substrate N-succinyl-(Ala)3-p-nitroanilide, enzyme 5 μg/ml final
T2 construct: purchased Sigma Chemicals Co; host or cells: porcine pancreas (from the enzyme's name)
Method: as §1

[4] = tested on: human sputum elastase induced paw edema in C57BL mice; assay: Human sputum elastase induced paw edema in mice; assay type: in vivo, mouse; conditions: for Thickness of footpad: 15 min before HSE 20 μg/site, 2 h after HSE
Method: Male C57BL mice at the age of 7-8 weeks were obtained from Japan Clear Inc,.
Human sputum elastase (HSE) was purchased from Elastin Products Company, Inc,. The test drug was administered subcutaneously, and 15 minutes later, HSE was injected into the right hind footpad at the dosage of 20 μg/site, and saline into the left hind footpad as the control. After 2 hours of HSE injection, the paw edema was measured with the dial thickness gage, and the difference of the thickness between right and left hind footpads was calculated.

[5] = tested on: PPE-induced emphysema in golden Syrian hamsters; assay: Experimentally (porcine pancreatic elastase) induced emphysema in hamsters; assay type: in vivo, hamster; conditions: for Cst (quasi static lung compliance) / VC (vital capacity): 3 weeks after PPE
Method: Male golden Syrian hamsters, weighing approximately 120 g, were obtained from Japan SLC Inc,.
Porcine pancreatic elastase (PPE) was purchased from Elastin Products Company, Inc,. Dialferin was purchased from Japan Roche Inc,.
Hamsters were anesthetized intraperitoneally with Pentobarbital. The compound of Example 19 was dissolved in saline. Both prior art compounds A and B were suspended in 0.5% methyl cellulose. The drugs were instilled intratracheally through the oral cavity, 5 minutes before 100 μg/site of PPE in 0.2 ml of saline instillation. Three weeks after PPE instillation, the hamsters were anesthetized with Pentobarbital. Respiratory mechanics were studied in supine hamsters using a whole body, constant-volume, variable pressure plethysmograph to measue volume. A water-filled esophageal catheter was used to estimate pleural pressure. Quasi-static deflation pressure-volume (P-V) curves were obtained by intraperitoneally administered Dialferin to suppress spontaneous breathing inflating the lungs to a transpulmonary pressure (PL) of 30 cm H2 O, permitting slow deflation to a PL of 0 cm H2 O and gently aspirating to a PL of -20 cm H2 O . Quasi-static lung compliance (Cst) was defined as the slope of the steep portion of the deflation P-V curve in the mid-volume range. Vital capacity was defined as the difference in lung volume between TLC25 (volume at PL=25 cm H2 O) and RV-20 (volume at PL=-20 cm H2 O).

[6] = read-out: IC50 Porcine pancreas elastase
[7] = 1 μg/site intratracheal 5 min before PPE 100 μg/site
[8] = 10 μg/site intratracheal 5 min before PPE 100 μg/site
[9] = 100 μg/site intratracheal 5 min before PPE 100 μg/site

T2 sequence (P00772 27-266): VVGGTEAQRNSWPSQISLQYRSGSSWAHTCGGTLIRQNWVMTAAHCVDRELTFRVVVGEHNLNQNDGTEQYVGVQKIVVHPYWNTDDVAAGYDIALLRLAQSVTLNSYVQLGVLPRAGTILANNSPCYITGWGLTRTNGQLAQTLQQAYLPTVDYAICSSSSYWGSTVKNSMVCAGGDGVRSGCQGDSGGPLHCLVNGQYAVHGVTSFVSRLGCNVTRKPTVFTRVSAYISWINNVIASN

With `CC(C)C(NC(=O)CN(C(=O)[C@@H](NC(=O)c1ccc(C(=O)NCCN2CCOCC2)cc1)C(C)C)C1Cc2ccccc2C1)C(=O)C(F)(F)F` (mixture of isomers) [Example 29, 3(RS)-[[4-[[2-(4-morpholino)ethyl]aminocarbonyl]phenylcarbonyl]-L-valyl-N-(2-indanyl)glycyl]amino-1,1,1-trifluoro-4-methyl-2-oxopentane] the pIC50 [1] was 5.62, the “% inhibition of elastase-induced lung hemorrhage” value ([2]; 1 μg/site intratracheal) was 14.9% and the “Hemorrhage (OD541 nm)” value ([2]; 1 μg/site intratracheal) was 12.05 ± 1.95 OD541 nm. The “% inhibition of elastase-induced lung hemorrhage” value ([2]; 10 μg/site intratracheal) was 43.2%, the “Hemorrhage (OD541 nm)” value ([2]; 10 μg/site intratracheal) was 8.155 ± 1.76 OD541 nm and the “% inhibition of elastase-induced lung hemorrhage” value ([2]; 100 μg/site intratracheal) was 69.4%. The “Hemorrhage (OD541 nm)” value ([2]; 100 μg/site intratracheal) was 4.545 ± 1.49 OD541 nm, the “ED50 elastase-induced lung hemorrhage” value [2] was 17.9 μg/site and the pIC50 [3, 6] was 4.72.

For `CC(C)C(NC(=O)CN(C(=O)[C@@H](NC(=O)c1ccc(C(=O)NCC(=O)O)cc1)C(C)C)C1Cc2ccccc2C1)C(=O)C(F)(F)F` (mixture of isomers) [Example 27, 3(RS)-[[4-(carboxymethylaminocarbonyl)phenylcarbonyl]-L-valyl-N-(2-indanyl)glycyl]-amino-1,1,1-trifluoro-4-methyl-2-oxopentane], the pIC50 [1] was 5.62, the “% inhibition of elastase-induced lung hemorrhage” value ([2]; 1 μg/site intratracheal) was 24.8% and the “Hemorrhage (OD541 nm)” value ([2]; 1 μg/site intratracheal) was 10.68 ± 1.25 OD541 nm. The “% inhibition of elastase-induced lung hemorrhage” value ([2]; 10 μg/site intratracheal) was 66.9%, the “Hemorrhage (OD541 nm)” value ([2]; 10 μg/site intratracheal) was 4.878 ± 0.917 OD541 nm and the “% inhibition of elastase-induced lung hemorrhage” value ([2]; 100 μg/site intratracheal) was 99.8%. The “Hemorrhage (OD541 nm)” value ([2]; 100 μg/site intratracheal) was 0.3451 ± 0.084 OD541 nm, the “ED50 elastase-induced lung hemorrhage” value [2] was 3.7 μg/site and the pIC50 [3, 6] was 4.80.

For `CC(C)C(NC(=O)[C@@H]1CCCN1C(=O)[C@@H](NC(=O)c1ccc(C(=O)NCC(=O)O)cc1)C(C)C)C(=O)C(F)(F)F` (mixture of isomers) [Example 13, 3(RS)-[[4-(carboxymethylaminocarbonyl)phenylcarbonyl]-L-valyl-L-prolyl]amino-1,1,1-trifluoro-4-methyl-2-oxopentane], the pIC50 [1] was 6.14, the “% inhibition of elastase-induced lung hemorrhage” value ([2]; 1 μg/site intratracheal) was 21.6% and the “Hemorrhage (OD541 nm)” value ([2]; 1 μg/site intratracheal) was 11.63 ± 1.99 OD541 nm. For the same compound, the “% inhibition of elastase-induced lung hemorrhage” value ([2]; 10 μg/site intratracheal) was 74.5%, the “Hemorrhage (OD541 nm)” value ([2]; 10 μg/site intratracheal) was 4.217 ± 1.02 OD541 nm and the “% inhibition of elastase-induced lung hemorrhage” value ([2]; 100 μg/site intratracheal) was 100.0%. The “Hemorrhage (OD541 nm)” value ([2]; 100 μg/site intratracheal) was 0.6384 ± 0.222 OD541 nm, the “ED50 elastase-induced lung hemorrhage” value [2] was 3.0 μg/site and the pIC50 ([3]; IC50 Porcine pancreas elastase) was 5.48.

In the case of `CC(C)C(NC(=O)[C@@H]1CCCN1C(=O)[C@@H](NC(=O)c1ccc(C(=O)NCC(=O)O)cc1)C(C)C)C(=O)C(F)(F)F` (mixture of isomers) [Example 19, 3(RS)-[[4-(carboxymethylaminocarbonyl)phenylcarbonyl]-L-valyl-L-prolyl]amino-1,1,1-trifluoro-4-methyl-2-oxopentane], the pIC50 [1] was 6.17, the “% Inhibition of paw edema” value ([4]; 1 mg/kg subcutaneous) was 6.4% and the Thickness of footpad ([4]; 1 mg/kg subcutaneous) was 43.8 ± 5.67 × 10^-2 mm. For the same compound, the “% Inhibition of paw edema” value ([4]; 10 mg/kg subcutaneous) was 20.9%, the Thickness of footpad ([4]; 10 mg/kg subcutaneous) was 37.0 ± 13.41 × 10^-2 mm and the “% Inhibition of paw edema” value ([4]; 100 mg/kg subcutaneous) was 42.3%. The Thickness of footpad ([4]; 100 mg/kg subcutaneous) was 27.0 ± 4.66 × 10^-2 mm, the “% inhibition of elastase-induced lung hemorrhage” value ([2]; 1 μg/site intratracheal) was 10.8% and the “Hemorrhage (OD541 nm)” value ([2]; 1 μg/site intratracheal) was 11.59 ± 1.40 OD541 nm. The “% inhibition of elastase-induced lung hemorrhage” value ([2]; 10 μg/site intratracheal) was 93.1%, the “Hemorrhage (OD541 nm)” value ([2]; 10 μg/site intratracheal) was 1.663 ± 0.690 OD541 nm and the “% inhibition of elastase-induced lung hemorrhage” value ([2]; 100 μg/site intratracheal) was 105.2%. The “Hemorrhage (OD541 nm)” value ([2]; 100 μg/site intratracheal) was 0.2141 ± 0.020 OD541 nm, the “ED50 elastase-induced lung hemorrhage” value [2] was 2.4 μg/site and the pIC50 ([3]; IC50 Porcine pancreas elastase) was 5.52. For the same compound, the “Cst (%) Inhibition” value ([5]; 1 μg/site intratracheal) was 15%, the “VC (%) Inhibition” value ([5]; 1 μg/site intratracheal) was 12% and the “Cst (quasi static lung compliance)” value [5, 7] was 1.39 ± 0.05 ml/cmH2 O. The “VC (vital capacity)” value [5, 7] was 7.0 ± 0.1 mL, the “Cst (%) Inhibition” value ([5]; 10 μg/site intratracheal) was 84% and the “VC (%) Inhibition” value ([5]; 10 μg/site intratracheal) was 65%. The “Cst (quasi static lung compliance)” value [5, 8] was 0.70 ± 0.04 ml/cmH2 O, the “VC (vital capacity)” value [5, 8] was 5.8 ± 0.1 mL and the “Cst (%) Inhibition” value ([5]; 100 μg/site intratracheal) was 100%. The “VC (%) Inhibition” value ([5]; 100 μg/site intratracheal) was 97%, the “Cst (quasi static lung compliance)” value [5, 9] was 0.53 ± 0.02 ml/cmH2 O and the “VC (vital capacity)” value [5, 9] was 5.0 ± 0.1 mL. The “Potency compared with prior art compounds, considering Cst and VC values (in words)” value ([5]; hamster, in vivo) was “superior to the prior art compounds A and B” and the “Effect of pretreatment on PPE-induced increases in lung mechanics (in words)” value ([5]; intratracheal pretreatment, 1-100 μg/site) was “prevented the development of PPE-induced increases in lung mechanics in a dose dependent manner”.

With `CC(C)C(NC(=O)[C@@H]1CCCN1C(=O)[C@@H](NC(=O)c1ccc(C(=O)NCCCC(=O)O)cc1)C(C)C)C(=O)C(F)(F)F` (mixture of isomers) [Example 20, 3(RS)-[[4-[(3-carboxypropyl)aminocarbonyl]phenylcarbonyl]-L-valyl-L-prolyl]amino-1,1,1-trifluoro-4-methyl-2-oxopentane] the pIC50 [1] was 6.05, the “% inhibition of elastase-induced lung hemorrhage” value ([2]; 1 μg/site intratracheal) was 16.1% and the “Hemorrhage (OD541 nm)” value ([2]; 1 μg/site intratracheal) was 10.94 ± 1.35 OD541 nm. The “% inhibition of elastase-induced lung hemorrhage” value ([2]; 10 μg/site intratracheal) was 86.0%, the “Hemorrhage (OD541 nm)” value ([2]; 10 μg/site intratracheal) was 2.522 ± 0.803 OD541 nm and the “% inhibition of elastase-induced lung hemorrhage” value ([2]; 100 μg/site intratracheal) was 104.7%. The “Hemorrhage (OD541 nm)” value ([2]; 100 μg/site intratracheal) was 0.2680 ± 0.050 OD541 nm, the “ED50 elastase-induced lung hemorrhage” value [2] was 2.5 μg/site and the pIC50 [3, 6] was 5.62.
